What is called Ki is a dissociation constant, usually derived from enzyme kinetics or from competition with a known ligand.

SMILES strings stand for the structures.

The test has as its target human PDE10A2 (Homo sapiens (Human), UniProt Q9Y233). Put plainly: PDE10 fluorescence polarization (IMAP FP) inhibition assay. It counts as biochemical. As to conditions: FAM-labeled cAMP 50 nM, room temperature, read-out: PDE10a Ki. How it is done: The activity of the compounds in accordance with the present invention as PDE10 inhibitors may be readily determined without undue experimentation using a fluorescence polarization (FP) methodology that is well known in the art (Huang, W., et al., J. Biomol Screen, 2002, 7: 215).
In a typical experiment the PDE10 inhibitory activity of the compounds of the present invention was determined in accordance with the following experimental method. PDE10A2 was amplified from human fetal brain cDNA (Clontech, Mountain View, Calif.) using a forward primer corresponding to nucleotides 56-77 of human PDE10A2 (Accession No. AF127480, Genbank Identifier 4894716), containing a Kozak consensus sequence, and a reverse primer corresponding to nucleotides 2406-2413 of human PDE10A2 (Accession No. AF127480, Genbank Identifier 4894716). Amplification with Easy-A polymerase (Stratagene, La Jolla, Calif.) was 95° C. for 2 minutes followed by thirty three cycles of 95° C. for 40 seconds, 55° C. for 30 seconds, and 72° C. for 2 minutes 48 seconds. Final extension was 72° C. for 7 minutes. The PCR product was TA cloned into pcDNA3.2-TOPO (Invitrogen, Carlsbad, Calif.) according to standard protocol. AD293 cells with 70-80% confluency were transiently transfected with human PDE10A2/pcDNA3.2-TOPO using Lipofectamine 2000 according to manufacturer specifications (Invitrogen, Carlsbad, Calif.). Cells were harvested 48 hours post-transfection and lysed by sonication (setting 3, 10×5 sec pulses) in a buffer containing 20 mM HEPES, 1 mM EDTA and protease inhibitor cocktail (Roche). Lysate was collected by centrifugation at 75,000×g for 20 minutes. Supernatant containing the cytoplasmic fraction was used for evaluation of PDE10A2 activity. The fluorescence polarization assay for cyclic nucleotide phosphodiesterases was performed using an IMAP® FP kit supplied by Molecular Devices, Sunnyvale, Calif. (product # R8139). IMAP® technology has been applied previously to phosphodiesterase assays (Huang, W., et al., J. Biomol Screen, 2002, 7: 215). Assays were performed at room temperature in 384-well microtiter plates with an incubation volume of 20.2 μL. Solutions of test compounds were prepared in DMSO and serially diluted with DMSO to yield 8 μL of each of 10 solutions differing by 3-fold in concentration, at 32 serial dilutions per plate. 100% inhibition is determined using a known PDE10 inhibitor, which can be any compound that is present at 5,000 times its Ki value in the assay described as follows, such as papaverine (see Siuciak, et al. Neuropharmacology (2006) 51:386-396; Becker, et al. Behav Brain Res (2008) 186(2):155-60; Threlfell, et al., J Pharmacol Exp Ther (2009) 328(3):785-795), 2-{4-[pyridin-4-yl-1-(2,2,2-trifluoroethyl)-1H-pyrazol-3-yl]phenoxymethyl}quinoline succinic acid or 2-[4-(1-methyl-4-pyridin-4-yl-1H-pyrazol-3-yl)-phenoxymethyl]quinoline succinic acid (see Schmidt, et al. J Pharmacol Exp Ther (2008) 325:681-690; Threlfall, et al., J Pharmacol Exp Ther (2009) 328(3): 785-795). 0% of inhibition is determined by using DMSO (1% final concentrations).
A Labcyte Echo 555 (Labcyte, Sunnyvale, Calif.) is used to dispense 200 nL from each well of the titration plate to the 384 well assay plate. A solution of enzyme (1/1600 dilution from aliquots; sufficient to produce 20% substrate conversion) and a separate solution of FAM-labeled cAMP PDE from Molecular Devices (product # R7506), at a final concentration of 50 nM are made in the assay buffer (10 mM Tris HCl, pH 7.2, 10 mM MgCl2, 0.05% NaN3 0.01% Tween-20, and 1 mM DTT). The enzyme and the substrate are then added to the assay plates in two consecutive additions of 10 μL, and then shaken to mix. The reaction is allowed to proceed at room temperature for 30 minutes. A binding solution is then made from the kit components, comprised of 80% Solution A, 20% Solution B and binding reagent at a volume of 1600 the total binding solution. […]
In general terms: Fluorescence polarisation rises when a labelled molecule tumbles more slowly, as on binding a larger partner.

Chain of human PDE10A2 (Q9Y233 267-1055): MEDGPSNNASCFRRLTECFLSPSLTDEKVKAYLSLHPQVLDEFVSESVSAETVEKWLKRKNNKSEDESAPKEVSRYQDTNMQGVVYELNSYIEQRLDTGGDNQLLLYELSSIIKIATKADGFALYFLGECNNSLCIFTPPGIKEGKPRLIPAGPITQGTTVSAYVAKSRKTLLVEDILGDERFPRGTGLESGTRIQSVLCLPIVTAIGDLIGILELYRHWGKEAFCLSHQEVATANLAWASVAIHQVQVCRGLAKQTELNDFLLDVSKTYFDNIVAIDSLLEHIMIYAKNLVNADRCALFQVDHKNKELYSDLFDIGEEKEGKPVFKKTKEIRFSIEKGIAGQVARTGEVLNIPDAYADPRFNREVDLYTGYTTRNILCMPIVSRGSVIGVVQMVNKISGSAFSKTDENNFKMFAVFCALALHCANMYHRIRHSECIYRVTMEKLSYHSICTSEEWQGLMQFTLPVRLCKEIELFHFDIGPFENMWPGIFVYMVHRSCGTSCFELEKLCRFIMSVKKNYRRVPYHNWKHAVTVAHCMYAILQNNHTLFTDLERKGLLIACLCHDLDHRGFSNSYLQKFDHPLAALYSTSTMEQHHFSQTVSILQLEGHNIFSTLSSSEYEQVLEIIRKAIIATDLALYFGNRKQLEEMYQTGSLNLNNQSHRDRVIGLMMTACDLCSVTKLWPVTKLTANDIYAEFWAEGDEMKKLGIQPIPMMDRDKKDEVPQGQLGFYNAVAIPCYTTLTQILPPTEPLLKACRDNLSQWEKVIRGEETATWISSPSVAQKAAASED

`COCc1nc(C)nn1-c1cc([C@H]2C[C@@H]2c2nc3ccccc3n2C)nc(C)n1` (stereo in doubt) [Cpd 86, 2-[2-{6-[5-(methoxymethyl)-3-methyl-1H-1,2,4-triazol-1-yl]-2-methylpyrimidin-4-yl}cyclopropyl]-1-methyl-1H-benzimidazole]: the Ki came to 1.4 nM.

Regarding `Cc1nc([C@@H]2C[C@H]2c2ccc3ccccc3n2)cc(-n2nc(C)nc2C)n1` (relative stereo) [Cpd 127, trans-2-{2-[6-(3,5-dimethyl-1H-1,2,4-triazol-1-yl)-2-methylpyrimidin-4-yl]cyclopropyl}quinoline], the Ki was 6 nM.

As to `Cc1nc([C@H]2C[C@@H]2c2nc3ccccc3s2)cc(-n2nc(C)nc2C)n1` [Cpd 104, 2-{(1S,2S)-2-[6-(3,5-dimethyl-1H-1,2,4-triazol-1-yl)-2-methylpyrimidin-4-yl]cyclopropyl}-1,3-benzothiazole], the Ki was determined as 69.5 nM.

For `Cc1nc(C)n(-c2cc([C@@H]3C[C@H]3c3nc4ccccc4n3C)nc(C#N)n2)n1` [Cpd 61, 4-(3,5-dimethyl-1H-1,2,4-triazol-1-yl)-6-[(1R,2R)-2-(1-methyl-1H-benzimidazol-2-yl)cyclopropyl]primidine-2-carbonitrile], the Ki stood at 0.085 nM.

With `Cc1nc(C)n(-c2cc([C@@H]3C[C@H]3c3nc4ccccc4n3C)nc(OCCO)n2)n1` [Cpd 64, 2-({4-(3,5-dimethyl-1H-1,2,4-triazol-1-yl)-6-[(1R,2R)-2-(1-methyl-1H-benzimidazol-2-yl)cyclopropyl]pyrimidin-2-yl}oxy)ethanol], the Ki came to 1.09 nM.

In the case of `COc1ccc(C2CC2c2cc(-n3nc(C)nc3Cc3ccc(OC)c(OC)c3)nc(C)n2)nc1` (centres unmarked) [Cpd 43, 4-(5-(3,4-dimethoxybenzyl)-3-methyl-1H-1,2,4-triazol-1-yl)-6-(2-(5-methoxypyridin-2-yl)cyclopropyl)-2-methylpyrimidine], the Ki came to 0.39 nM.

With `Cc1nc([C@H]2C[C@@H]2c2nc3ccccc3n2C)cc(-n2nc(C)nc2-c2cccnc2)n1` (stereo in doubt) [Cpd 81, 1-methyl-2-{2-[2-methyl-6-(3-methyl-5-pyridin-3-yl-1H-1,2,4-triazol-1-yl)pyrimidin-4-yl]cyclopropyl}-1H-benzimidazole], the inhibitory constant (Ki) turned out to be 12.8 nM.

With `COc1ccc(Cc2nc(C)nn2-c2cc(CCc3ccc4ccccc4n3)nc(C)n2)cc1OC` [Cpd 3, 2-(2-(6-(5-(3,4-dimethoxybenzyl)-3-methyl-1H-1,2,4-triazol-1-yl)-2-methylpyrimidin-4-yl)ethyl)quinoline], the Ki turned out to be 0.004 nM.

For the compound `Cc1nc([C@@H]2C[C@H]2c2nc3ccccc3[nH]2)cc(-n2nc(C)nc2C)n1` [Cpd 89, 2-{(1R,2R)-2-[6-(3,5-dimethyl-1H-1,2,4-triazol-1-yl)-2-methylpyrimidin-4-yl]cyclopropyl}-1H-benzimidazole], the inhibitory constant (Ki) was found to be 2.6 nM.

`COc1ccc(Cc2nc(C)nn2-c2cc(CCc3ccc(C)cn3)nc(C)n2)cc1OC` [Cpd 5, 4-(5-(3,4-dimethoxybenzyl)-3-methyl-1H-1,2,4-triazol-1-yl)-2-methyl-6-(2-(5-methylpyridin-2-yl)ethyl)pyrimidine]: the Ki came out at 0.14 nM.

Regarding `COc1ccc(Cc2nc(C)nn2-c2cc(/C=C/c3ccc4ncccc4n3)nc(C)n2)cc1OC` [Cpd 13, (E)-2-(2-(6-(5-(3,4-dimethoxybenzyl)-3-methyl-1H-1,2,4-triazol-1-yl)-2-methylpyrimidin-4-yl)vinyl)-1,5-naphthyridine], the Ki is 0.01 nM.

Regarding `Cc1nc([C@H]2C[C@@H]2c2nc3ccccc3n2C)cc(-n2nc(C)nc2C2CC2)n1` (stereo in doubt) [Cpd 85, 2-{2-[6-(5-cyclopropyl-3-methyl-1H-1,2,4-triazol-1-yl)-2-methylpyrimidin-4-yl]cyclopropyl}-1-methyl-1H-benzimidazole], the Ki turned out to be 2.9 nM.

Take `COc1ccc(Cc2nc(C)nn2-c2cc(C3CC3c3nc(C)no3)nc(C)n2)cc1OC` (centres unmarked) [Cpd 24, 5-(2-(6-(5-(3,4-dimethoxybenzyl)-3-methyl-1H-1,2,4-triazol-1-yl)-2-methylpyrimidin-4-yl)cyclopropyl)-3-methyl-1,2,4-oxadiazole]: the Ki was 248 nM.

In the case of `Cc1nc(C)n(-c2cc([C@H]3C[C@@H]3c3nc4ccccc4n3C)cnn2)n1` (relative stereo) [Cpd 128, trans-2-{2-[6-(3,5-dimethyl-1H-1,2,4-triazol-1-yl)pyridazin-4-yl]cyclopropyl}-1-methyl-1H-benzimidazole], the Ki worked out at 38 nM.

`COc1ccc(Cc2nc(C)nn2-c2cc(C3CC3c3nc4ccccc4n3C)nc(C)n2)cc1OC` (centres unmarked) [Cpd 28, 2-(2-(6-(5-(3,4-dimethoxybenzyl)-3-methyl-1H-1,2,4-triazol-1-yl)-2-methylpyrimidin-4-yl)cyclopropyl)-1-methyl-1H-benzo[d]imidazole]: the Ki was 0.003 nM.

On to `Cc1ccc2nc(C3CC3c3cc(-n4nc(C)nc4C)nc(C)n3)[nH]c2c1` (centres unmarked) [Cpd 58, 2-(2-(6-(3,5-dimethyl-1H-1,2,4-triazol-1-yl)-2-methylpyrimidin-4-yl)cyclopropyl)-6-methyl-1H-benzo[d]imidazole], for which the Ki came to 34.9 nM.

Take `CCc1nc(CC)n(-c2cc([C@@H]3C[C@H]3c3nc4ccccc4n3C)nc(C)n2)n1` [Cpd 106, 2-{(1R,2R)-2-[6-(3,5-diethyl-1H-1,2,4-triazol-1-yl)-2-methylpyrimidin-4-yl]cyclopropyl}-1-methyl-1H-benzimidazole]: the Ki stood at 2.8 nM.

For `COC[C@H](C)Oc1nc([C@@H]2C[C@H]2c2nc3ccccc3n2C)cc(-n2nc(C)nc2C)n1` [Cpd 67, 2-[(1R,2R)-2-{6-(3,5-dimethyl-1H-1,2,4-triazol-1-yl)-2-[(1S)-2-methoxy-1-methylethoxy]pyrimidin-4-yl]cyclopropyl}-1-methyl-1H-benzimidazole], the inhibitory constant (Ki) came to 0.9 nM.

Turning to `COc1ccc(Cc2nc(C)nn2-c2cc(C3CC3c3cc4n(n3)CCC4)nc(C)n2)cc1OC` (centres unmarked) [Cpd 42, 2-(2-(6-(5-(3,4-dimethoxybenzyl)-3-methyl-1H-1,2,4-triazol-1-yl)-2-methylpyrimidin-4-yl)cyclopropyl)-5,6-dihydro-4H-pyrrolo[1,2-b]pyrazole], the Ki worked out at 0.5 nM.

Turning to `Cc1nc([C@@H]2C[C@H]2c2nc3ccccc3n2C)cc(-n2nc(C)nc2C)n1` [Cpd 37, 2-((1R,2R)-2-(6-(3,5-dimethyl-1H-1,2,4-triazol-1-yl)-2-methylpyrimidin-4-yl)cyclopropyl)-1-methyl-1H-benzo[d]imidazole], the Ki came out at 1.4 nM.

As to `COc1ccc2nc(C3CC3c3cc(-n4nc(C)nc4C)nc(C)n3)[nH]c2c1` (centres unmarked) [Cpd 59, 2-(2-(6-(3,5-dimethyl-1H-1,2,4-triazol-1-yl)-2-methylpyrimidin-4-yl)cyclopropyl)-6-methoxy-1H-benzo[d]imidazole], the Ki came to 30.5 nM.

Consider `Cc1nc([C@@H]2C[C@H]2c2nc3ccccc3n2C(C)C)cc(-n2nc(C)nc2C)n1` (stereo in doubt) [Cpd 71, 2-{2-[6-(3,5-dimethyl-1H-1,2,4-triazol-1-yl)-2-methylpyrimidin-4-yl]cyclopropyl}-1-(1-methylethyl)-1H-benzimidazole], for which the Ki stood at 13.6 nM.

Take `Cc1ccc(CCc2cc(-n3nc(C)nc3C)nc(C)n2)nc1` [Cpd 50, 4-(3,5-dimethyl-1H-1,2,4-triazol-1-yl)-2-methyl-6-(2-(5-methylpyridin-2-yl)ethyl)pyrimidine]: the Ki is 0.14 nM.

(Values after patent US9200001B2, “Triazolyl PDE10 inhibitors” (Merck Sharp & Dohme Corp., priority 2011, dated 2015).)
